According to ChEMBL document CHEMBL1201862, “PubChem BioAssay data set” (2004):
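Method: 48-hour compound exposure of cells in 96-well plates, five concentrations, linear interpolation of endpoints. Here, GI50 denotes the concentration required for 50% inhibition of growth.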 The source made the active and inactive calls. No stated cut-off is given here; in the data, active = GI50 up to about 1.1 µM and inactive = higher.

How the values were obtained:
Assay in all cases: NCI anticancer screen, dose series, 48 h
[1] = tested on: 786-0
[2] = tested on: A498
[3] = tested on: A549
[4] = tested on: ACHN
[5] = tested on: BT-549
[6] = tested on: CAKI-1
[7] = tested on: CCRF-CEM
[8] = tested on: COLO 205
[9] = tested on: DU-145
[10] = tested on: EKVX
[11] = tested on: HCT-116
[12] = tested on: HCT-15
[13] = tested on: HL-60
[14] = tested on: HOP-62
[15] = tested on: HOP-92
[16] = tested on: HT-29
[17] = tested on: Hs-578T
[18] = tested on: IGROV-1
[19] = tested on: K562
[20] = tested on: KM12
[21] = tested on: LOX IMVI
[22] = tested on: M14
[23] = tested on: MDA-MB-231
[24] = tested on: MDA-MB-435
[25] = tested on: MDA-N
[26] = tested on: MOLT-4
[27] = tested on: Malme-3M
[28] = tested on: NCI-H226
[29] = tested on: NCI-H23
[30] = tested on: NCI-H460
[31] = tested on: NCI-H522
[32] = tested on: NCI/ADR-RES
[33] = tested on: OVCAR-3
[34] = tested on: OVCAR-4
[35] = tested on: OVCAR-5
[36] = tested on: OVCAR-8
[37] = tested on: PC-3
[38] = tested on: RPMI-8226
[39] = tested on: RXF 393
[40] = tested on: SF-268
[41] = tested on: SF-295
[42] = tested on: SF-539
[43] = tested on: SK-MEL-28
[44] = tested on: SK-MEL-2
[45] = tested on: SK-MEL-5
[46] = tested on: SK-OV-3
[47] = tested on: SN12C
[48] = tested on: SNB-19
[49] = tested on: SR
[50] = tested on: SW-620
[51] = tested on: T47D
[52] = tested on: TK-10
[53] = tested on: U-251
[54] = tested on: UACC-257
[55] = tested on: UACC-62
[56] = tested on: UO-31
[57] = tested on: MCF7

Measured: GI50

C[C@@H]1[C@@H](c2ccccc2)O[B-](c2ccccc2)(c2ccccc2)N1C
40.2 µM: [12]
inactive: [1] 65.8 µM | [2] 34.8 µM | [3] 58.6 µM | [4] 33.1 µM | [5] 30.7 µM | [6] 27.9 µM | [7] 12.9 µM | [8] 22.3 µM | [9] 63.1 µM | [10] 97.7 µM | [11] 32.9 µM | [13] 15.3 µM | [14] > 100 µM | [15] 27.8 µM | [16] 85.9 µM | [17] 33.4 µM | [18] 69 µM | [19] 36.4 µM | [20] 52.1 µM | [21] 61.9 µM | [22] 28.4 µM | [23] 40.7 µM | [24] 35.4 µM | [25] 52 µM | [26] 43.7 µM | [27] 29.5 µM | [28] 36.5 µM | [29] 35.6 µM | [30] 45.2 µM | [31] 34.5 µM | [32] 54.5 µM | [33] 35.9 µM | [34] 72.1 µM | [35] 74.3 µM | [36] 72.3 µM | [37] 17.5 µM | [38] 32 µM | [39] 37.5 µM | [40] 64 µM | [41] 62.4 µM | [42] 27.3 µM | [43] 52.1 µM | [44] 49.5 µM | [45] 30 µM | [46] 55.3 µM | [47] 61.5 µM | [48] > 100 µM | [49] 21.7 µM | [50] 50.8 µM | [51] 38.9 µM | [52] 32.8 µM | [53] > 100 µM | [54] 50.6 µM | [55] 41 µM | [56] 20.9 µM

COc1cc2c3c(n(C)c(=O)c2cc1OC)-c1cc2c(cc1/C3=C\CCCI)OCO2
2.56 µM: [12]
active: [4] 0.531 µM | [26] 0.238 µM | [40] 0.776 µM | [41] 0.904 µM | [49] 0.239 µM | [50] 0.533 µM | [51] 0.7 µM | [52] 0.649 µM | [56] 0.653 µM
inactive: [1] 5.32 µM | [2] 2.38 µM | [3] 38.9 µM | [5] 1.7 µM | [6] 4.35 µM | [7] 1.29 µM | [8] 18.1 µM | [9] 1.17 µM | [10] 30.1 µM | [11] 1.47 µM | [13] > 47.1 µM | [14] 10 µM | [16] 20.4 µM | [17] 4.11 µM | [18] 1.58 µM | [19] 2.07 µM | [20] > 87.9 µM | [21] 8.3 µM | [22] 2.61 µM | [57] 2.91 µM | [24] 19.3 µM | [25] > 70.8 µM | [27] 2.23 µM | [28] 1.34 µM | [29] 12.2 µM | [30] 5.42 µM | [31] 6.75 µM | [32] 18.1 µM | [33] > 61.1 µM | [35] > 4.65 µM | [36] 1.73 µM | [37] > 53.5 µM | [38] 3.92 µM | [39] 10.6 µM | [42] 3.94 µM | [44] > 100 µM | [45] 10.4 µM | [46] 20.9 µM | [47] 8.75 µM | [48] 13.7 µM | [53] 4.21 µM | [54] > 100 µM | [55] 4.49 µM
